# Tested on: endogenous reactive oxygen species (ROS), primarily hydrogen peroxide (H2O2), in normal human epidermal keratinocyte (NHEK) cell cultures
# Assay: Endogenous reactive oxygen species (ROS) level in NHEK cell cultures, dichlorodihydrofluorescein diacetate fluorescence
# Assay type: cell-based
# Conditions: overnight incubation, fluorescence at 5.5 hour time point, NHEK cells
# Protocol: Specifically, NHEK cells were cultured and plated, followed by treatment with Resveratrol Ferulates at concentrations of about 10 μM, 25 μM, and 50 μM. As comparative examples, some NHEK cells were separated treated with resveratrol at a concentration of about 25 μM. Further as control examples, some NHEK cells were maintained without treatment with either Resveratrol Ferulates or resveratrol. Four samples of NHEK cells were provided for each treatment. After overnight incubation of the cell cultures, dichlorodihydrofluorescein diacetate was added thereinto. Dichlorodihydrofluorescein diacetate is a useful fluorogenic reagent for detecting reactive oxygen species in cells. Upon oxidation by the reactive oxygen species, dichlorodihydrofluorescein diacetate becomes the highly green fluorescent dichlorofluorescein, which can be readily detected by fluorescene spectroscopy. For example, a Gemini EM microplate spectrofluorometer commercially available from Molecular Devices at Sunnyvale, Calif. was employed to measure the fluorescence (Ex450, Em525) of the cell cultures at the 5.5 hour time point, which was used as an indication of the amount of reactive oxygen species (primarily H2O2) in the cells.
compound,measurement,setting,value
"Oc1ccc(C=Cc2cc(O)cc(O)c2)cc1 [resveratrol, 3,5,4′-trihydroxystilbene]",average reduction in ROS level in comparison with the control samples,10 μM,about 62.0%
same,average reduction in ROS level in comparison with the control samples,25 μM,about 69.5%
